Values joined by “and” are separate entries in the source; they are usually repeats but may differ in a detail not shown here. Identical values can stand only once.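 Following 48 hours of exposure in 96-well plates, responses at five concentrations were used to interpolate endpoints linearly. GI50 marks 50% less growth. TGI: total growth inhibition.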
Columns and labels:
Assay in all cases: inhibition of tumour cell growth, NCI panel, 48 h
[1] = tested on: MOLT-4 leukemia
[2] = tested on: BT-549 breast
[3] = tested on: HL-60(TB) leukemia
[4] = tested on: MCF7 breast
[5] = tested on: NCI-H23 lung
[6] = tested on: MDA-MB-435
[7] = tested on: U251 CNS
[8] = tested on: HS 578T breast
[9] = tested on: SW-620 colon

SMILES | TGI [1] | TGI [2] | TGI [3] | TGI [4] | TGI [5] | TGI [6] | TGI [7] | TGI [8] | TGI [9] | GI50 [1] | GI50 [2] | GI50 [3] | GI50 [4] | GI50 [5] | GI50 [6] | GI50 [9]
Cc1ccc2c(c1)nc1n2C(N)=Nc2ccccc2S1 | > 100 µM | > 100 µM | 6.86 µM | > 100 µM | > 100 µM | > 100 µM | > 100 µM | > 100 µM | > 100 µM | – | – | – | – | – | – | –
CC(=O)OCC1OC(n2c(S)c(C#N)c(-c3ccccc3)c(C#N)c2=O)C(OC(C)=O)C(OC(C)=O)C1OC(C)=O (stereo unspecified) | > 100 µM and 50.8 µM | > 100 µM and 59.1 µM | > 100 µM and 35.5 µM | > 100 µM and 97.6 µM | > 100 µM | > 100 µM and 34.6 µM | > 100 µM | > 100 µM | > 100 µM | > 100 µM and 23.6 µM | > 66.8 µM and 21.1 µM | > 100 µM and 17.4 µM | > 100 µM and 33.7 µM | > 100 µM and 45 µM | > 100 µM and 17.2 µM | > 100 µM and 49.9 µM
O=C(O)[C@H](CCC[C@H]1C(=O)O[C@H](c2ccccc2)[C@H](c2ccccc2)N1C(=O)OCc1ccccc1)N[C@@H](c1ccccc1)[C@H](O)c1ccccc1 | 62 µM | 78.9 µM | 38.8 µM | > 100 µM | 85.4 µM | 40.8 µM | 31.1 µM | 58.9 µM | 68.5 µM | – | – | – | – | – | – | –
CN(CCNC(=O)c1c[nH]c2c1Cc1ccccc1-2)CCNC(=O)c1c[nH]c2c1Cc1ccccc1-2 | 63.7 µM | > 100 µM | 77.2 µM | 86 µM | > 100 µM | 41.3 µM | 34.7 µM | > 100 µM | > 100 µM | – | – | – | – | – | – | –
OC1(c2ccc(Cl)cc2)c2ccccc2-c2nc3ccccc3n21 (stereo unspecified) | > 100 µM | > 100 µM | > 100 µM | > 100 µM | > 100 µM | > 100 µM | > 100 µM | > 100 µM | > 100 µM | – | – | – | – | – | – | –
CC1=CP(=O)(c2c(C(C)C)cc(C(C)C)cc2C(C)C)CCC1Cl (stereo unspecified) | 49.6 µM | 33.4 µM | 42.8 µM | 35.5 µM | 39.4 µM | 37.6 µM | 32.3 µM | > 100 µM | 69.9 µM | – | – | – | – | – | – | –
COc1ccccc1C1(c2c(OC)c(=O)c2=O)SCCCS1 | > 100 µM | > 100 µM | > 100 µM | > 100 µM | > 100 µM | > 100 µM | > 100 µM | > 100 µM | > 100 µM | – | – | – | – | – | – | –
CC(C)=CC[C@]12CCN(C)[C@H]1N(S(=O)(=O)c1ccccc1)c1ccccc12 | > 100 µM | > 100 µM | > 74.6 µM | > 72.9 µM | > 100 µM | > 71.6 µM | > 58.2 µM | > 90 µM | > 100 µM | – | – | – | – | – | – | –
Nc1nc(Cl)c(Cl)c(NCC2(O)CCC2)n1 | > 100 µM | > 100 µM | > 100 µM | > 100 µM | > 100 µM | > 100 µM | > 100 µM | > 100 µM | > 100 µM | – | – | – | – | – | – | –
COc1ccc(-c2c(-c3ccccc3)c(C)nc3nc(SC)nc(SC)c23)cc1OC | 71.3 µM | > 100 µM | 8.49 µM | > 100 µM | > 100 µM | > 100 µM | 28.3 µM | 82.3 µM | > 100 µM | – | – | – | – | – | – | –
CCC(C)C1=C(O)[N+]2([O-])Oc3ccc(-c4c(O)c(O)c(-c5ccc(OC(C)=O)cc5)c(OC(C)=O)c4OC(C)=O)cc3OC2(C(C)CC)C(=O)N1O (stereo unspecified) | > 50 µM | > 50 µM | > 50 µM | > 50 µM | > 50 µM | > 50 µM | > 50 µM | > 50 µM | > 50 µM | – | – | – | – | – | – | –
CC1OC2OC3C(OCC(O)C3O)OC(=O)[C@]34CCC(C)(C)CC3C3=CCC5[C@@]6(C)C[C@H](O)[C@H](OC7OC(CO)C(O)C(O)C7OC7OCC(OC(=O)CC(C)(O)CC(=O)OC1C(O)C2O)C(O)C7O)[C@@](C)(CO)C6CC[C@@]5(C)[C@]3(C)CC4 (stereo partly specified) | 23.1 µM | 24.8 µM | 4.11 µM | 26.4 µM | 10.1 µM | 19.1 µM | 12.6 µM | 21.2 µM | 19 µM | – | – | – | – | – | – | –
Cc1cc2nc3c(C#N)c4c(c(-c5ccc(Cl)cc5)n3c2cc1C)CCC4 | 57.5 µM | 41.8 µM | 48.3 µM | > 100 µM | 35.4 µM | 54.8 µM | 78.4 µM | 47.9 µM | > 100 µM | – | – | – | – | – | – | –
COc1cc2c(/C=C3/C(=O)N(C)c4ccc(O)cc43)c(Cl)[nH]c2cc1C | 0.784 µM | 15.8 µM | 3.02 µM | 33.4 µM | 3.28 µM | 0.124 µM | 17.6 µM | 28.9 µM | 21.3 µM | – | – | – | – | – | – | –
O=C1CSC(c2cccc(Cl)c2)N1c1ccc(-c2ccc(-n3c(-c4ccccc4)nc4ccccc4c3=O)cc2)cc1 (stereo unspecified) | > 100 µM | 80.3 µM | > 100 µM | > 100 µM | > 100 µM | > 100 µM | > 100 µM | > 100 µM | > 100 µM | – | – | – | – | – | – | –
CCOC(=O)/C=C(\C(=O)OCC)n1cc(C)c(=O)n(Cc2cnnn2COCCOC(C)=O)c1=O | 8.7 µM | 16.3 µM | 12.7 µM | 24.5 µM | 34.2 µM | 28.1 µM | 43.6 µM | 46.8 µM | 9.92 µM | – | – | – | – | – | – | –

From PubChem BioAssay (NCI)
